Results published in patent US11155517B2, “4-substituted phenylamine derivatives and their use to protect crops by fighting undesired phytopathogenic micoorganisms” (PI INDUSTRIES LTD., priority 2016, dated 2021).

What was measured:
[1] = system: Pyricularia oryzae; assay: microbe, parasite or virus in culture; format: cell-based; conditions: 168 h, read-out: % control compared to the untreated check (radial growth)
[2] = system: Rhizoctonia solani; assay: Rhizoctonia solani (rice sheath blight/potato black scurf) in vitro test, radial growth on Potato Dextrose Agar; format: cell-based; conditions: 168 h, 300 ppm, seven days, 25° C., read-out: % control compared to the untreated check (radial growth)
[3] = system: Botrytis cinerea; assay: Botrytis cinerea (gray mold) in vitro test, radial growth on Potato Dextrose Agar; format: cell-based; conditions: 168 h, 300 ppm, seven days, 22° C., read-out: % (control) compared to the untreated check (radial growth)
[4] = system: Alternaria solani; assay: Alternaria solani (early blight of tomato/potato) in vitro test, radial growth on Potato Dextrose Agar; format: cell-based; conditions: 168 h, 300 ppm, seven days, 25° C., read-out: % control compared to the untreated check (radial growth)
[5] = system: Colletotrichum capsici; assay: Colletotrichum capsici (anthracnose) in vitro test, radial growth on Potato Dextrose Agar; format: cell-based; conditions: Colletotrichum truncatum, 168 h; 300 ppm; seven days, 25° C.; read-out: % control compared to the untreated check (radial growth)
[6] = system: Septoria lycopersici; assay: Septoria lycopersici (leaf spot of tomato) in vitro test, radial growth on Potato Dextrose Agar; format: cell-based; conditions: 168 h, seven days, 25° C., read-out: % control compared to the untreated check (radial growth)
[7] = system: Fusarium culmorum; assay: Fusarium culmorum (foot rot of cereals) in vitro test, radial growth on Potato Dextrose Agar; format: cell-based; conditions: Fusarium culmorum, 168 h, read-out: % control compared to the untreated check (radial growth)
[8] = system: Botrytis cinera; assay: Greenhouse Botrytis cinera test in tomato, preventive; format: in vivo; conditions: 24 h, plants sprayed one day before inoculation, read-out: Efficacy (% control), disease severity vs untreated check

For CCN(C)C=Nc1cc(C)c(Cc2ccc(OC)cc2)cc1Cl [Compound 69, N′-(2-chloro-4-(4-methoxybenzyl)-5-methylphenyl)-N-ethyl-N-methylformimidamide], the inhibition of growth at 300 ppm [1] was greater than 75%, the inhibition of growth at 300 ppm [2] was greater than 80% and the inhibition of growth at 300 ppm [3] was greater than 80%. It also gave an inhibition of growth at 300 ppm [4] greater than 75%, an inhibition of growth at 300 ppm [5] greater than 80% and an inhibition of growth at 300 ppm [6] greater than 70%. It also gave an inhibition of growth at 300 ppm [7] of 75%.
CCN(C)C=Nc1cc(C)c(Cc2cc(C)cc(F)c2)cc1C [Compound 200, N-ethyl-N′-(4-(3-fluoro-5-methylbenzyl)-2,5-dimethylphenyl)-N-methylformimidamide] showed an inhibition of growth at 300 ppm [1] greater than 75%, an inhibition of growth at 300 ppm [2] greater than 80% and an inhibition of growth at 300 ppm [3] greater than 80%. It also gave an inhibition of growth at 300 ppm [4] greater than 75%, an inhibition of growth at 300 ppm [5] greater than 80% and an inhibition of growth at 300 ppm [6] greater than 70%. It also gave an inhibition of growth at 300 ppm [7] of 75%.
In the case of CCN(C)C=Nc1cc(C)c(Cc2ccc(OC(F)(F)F)cc2)cc1C [Compound 117, N′-(2,5-dimethyl-4-(4-(trifluoromethoxy)benzyl)phenyl)-N-ethyl-N-methylformimidamide], the inhibition of growth at 300 ppm [1] is reported as greater than 75%, the inhibition of growth at 300 ppm [2] is reported as greater than 80% and the inhibition of growth at 300 ppm [3] is reported as greater than 80%. For the same molecule, the inhibition of growth at 300 ppm [4] was greater than 75%, the inhibition of growth at 300 ppm [5] was greater than 80% and the inhibition of growth at 300 ppm [6] was greater than 70%. It also gave an inhibition of growth at 300 ppm [7] of 75%.
With CCN(C)C=Nc1cc(C)c(Cc2cc(C)cc(C)c2)cc1C [Compound 114, N′-(4-(3,5-dimethylbenzyl)-2,5-dimethylphenyl)-N-ethyl-N-methylformimidamide] the inhibition of growth at 300 ppm [1] was greater than 75%, the inhibition of growth at 300 ppm [2] was greater than 80% and the inhibition of growth at 300 ppm [3] was greater than 80%. For the same molecule, the inhibition of growth at 300 ppm [4] was greater than 75%, the inhibition of growth at 300 ppm [5] was greater than 80% and the inhibition of growth at 300 ppm [6] was greater than 70%. For the same molecule, the inhibition of growth at 300 ppm [7] was 75%.
CCN(C)C=Nc1cc(C)c(Cc2c(F)cccc2Cl)cc1Cl [Compound 184, N′-(2-chloro-4-(2-chloro-6-fluorobenzyl)-5-methylphenyl)-N-ethyl-N-methylformimidamide] was tested, and the inhibition of growth at 300 ppm [1] was greater than 75%, the inhibition of growth at 300 ppm [2] was greater than 80% and the inhibition of growth at 300 ppm [3] was greater than 80%. The inhibition of growth at 300 ppm [4] was greater than 75%, the inhibition of growth at 300 ppm [5] was greater than 80% and the pest or weed control at 500 ppm [8] was 70 to 100%.
Molecule Cc1cc(N=CNC(C)C)c(C)cc1Cc1ccccc1Cl [Compound 67, N′-(4-(2-chlorobenzyl)-2,5-dimethylphenyl)-N-isopropylformimidamide] has an inhibition of growth at 300 ppm [1] greater than 75%, an inhibition of growth at 300 ppm [2] greater than 80% and an inhibition of growth at 300 ppm [3] greater than 80%. It also gave an inhibition of growth at 300 ppm [4] greater than 75%, an inhibition of growth at 300 ppm [5] greater than 80% and an inhibition of growth at 300 ppm [6] greater than 70%. For the same molecule, the inhibition of growth at 300 ppm [7] was 75%.
CCN(C)C=Nc1cc(C)c(Cc2ccc(F)c(F)c2)cc1Cl [Compound 138, N′-(2-chloro-4-(3,4-difluorobenzyl)-5-methylphenyl)-N-ethyl-N-methylformimidamide] was tested, and the inhibition of growth at 300 ppm [1] was greater than 75%, the inhibition of growth at 300 ppm [2] was greater than 80% and the inhibition of growth at 300 ppm [3] was greater than 80%. For the same molecule, the inhibition of growth at 300 ppm [4] was greater than 75%, the inhibition of growth at 300 ppm [5] was greater than 80% and the inhibition of growth at 300 ppm [6] was greater than 70%. It also gave an inhibition of growth at 300 ppm [7] of 75%.
For CCN(C)C=Nc1cc(C)c(Cc2ccc(F)c(F)c2)cc1C [Compound 146, N′-(4-(3,4-difluorobenzyl)-2,5-dimethylphenyl)-N-ethyl-N-methylformimidamide], the inhibition of growth at 300 ppm [1] was greater than 75%, the inhibition of growth at 300 ppm [2] was greater than 80% and the inhibition of growth at 300 ppm [3] was greater than 80%. The inhibition of growth at 300 ppm [4] was greater than 75%, the inhibition of growth at 300 ppm [5] was greater than 80% and the inhibition of growth at 300 ppm [6] was greater than 70%. The inhibition of growth at 300 ppm [7] was 75%.
CCN(C)C=Nc1cc(F)c(Cc2cccc(C(F)(F)F)c2)cc1C [Compound 196, N-ethyl-N′-(5-fluoro-2-methyl-4-(3-(trifluoromethyl)benzyl)phenyl)-N-methylformimidamide] showed an inhibition of growth at 300 ppm [1] greater than 75%, an inhibition of growth at 300 ppm [2] greater than 80% and an inhibition of growth at 300 ppm [3] greater than 80%. The inhibition of growth at 300 ppm [4] was greater than 75%, the inhibition of growth at 300 ppm [5] was greater than 80% and the inhibition of growth at 300 ppm [6] was greater than 70%. For the same molecule, the inhibition of growth at 300 ppm [7] was 75%.
CCN(C)C=Nc1c(C)cc(Cc2ccc(Br)cc2)c(C)c1Br [Compound 10, N′-(2-bromo-4-(4-bromobenzyl)-3,6-dimethylphenyl)-N-ethyl-N-methylformimidamide] gave an inhibition of growth at 300 ppm [1] greater than 75%, an inhibition of growth at 300 ppm [2] greater than 80% and an inhibition of growth at 300 ppm [3] greater than 80%. For the same molecule, the inhibition of growth at 300 ppm [4] was greater than 75%, the inhibition of growth at 300 ppm [5] was greater than 80% and the pest or weed control at 500 ppm [8] was 70 to 100%.
In the case of CCN(C)C=Nc1cc(C)c(Cc2c(F)cccc2C(F)(F)F)cc1Cl [Compound 220, N′-(2-chloro-4-(2-fluoro-6-(trifluoromethyl)benzyl)-5-methylphenyl)-N-ethyl-N-methylformimidamide], the inhibition of growth at 300 ppm [1] is reported as greater than 75%, the inhibition of growth at 300 ppm [2] is reported as greater than 80% and the inhibition of growth at 300 ppm [3] is reported as greater than 80%. For the same molecule, the inhibition of growth at 300 ppm [4] was greater than 75%, the inhibition of growth at 300 ppm [5] was greater than 80% and the inhibition of growth at 300 ppm [6] was greater than 70%. The inhibition of growth at 300 ppm [7] was 75%.
